Source: BindingDB's records for doi:10.1021/jm00114a022 (Smithkline Beecham Pharmaceuticals Research and Development, 1991)
Where a SMILES comes first, the peptide text is derived from it. Bridges are numbered along the chain shown (N, C = ends). [ ]: non-standard residue; d: D form. NMeR = CN[C@@H](CCCNC(=N)N)C(=O)O; hArg = N=C(N)NCCCC[C@H](N)C(=O)O; Cit = NC(=O)NCCC[C@H](N)C(=O)O; Pen = CC(C)(S)[C@H](N)C(=O)O; Sar = CNCC(=O)O

Experiments:
[1] = Inhibition of canine platelet-rich plasma agregation induced by ADP
[2] = Inhibition of human washed platelet aggregation

Row | IC50 [1] [µM] | Ki [2] [µM] | Compound
1 | 7.97 | – | CC(=O)N[C@@H]1C(=O)N[C@@H](CCCN=C(N)N)C(=O)NCC(=O)N[C@@H](CC(=O)O)C(=O)N[C@H](C(N)=O)CSSC1(C)C
2 | 16.2 | – | CC(=O)N[C@H]1CSSC[C@@H](C(N)=O)NC(=O)[C@H](CC(=O)O)NC(=O)CNC(=O)[C@H](CCCN=C(N)N)NC1=O
3 | 11.4 | – | CC(=O)N[C@H]1CSSC(C)(C)[C@@H](C(N)=O)NC(=O)[C@H](CC(=O)O)NC(=O)CNC(=O)[C@H](CCCN=C(N)N)NC(=O)CNC1=O
4 | 73.4 | – | CC(=O)N[C@H]1CSSC(C)(C)[C@@H](C(N)=O)NC(=O)[C@H](CC(=O)O)NC(=O)CN(C)C(=O)[C@H](CCCN=C(N)N)NC1=O
5 | 0.37 | – | CC(=O)N[C@@H]1C(=O)N(C)[C@@H](CCCN=C(N)N)C(=O)NCC(=O)N[C@@H](CC(=O)O)C(=O)N[C@H](C(N)=O)C(C)(C)SSC1(C)C
6 | 200 | – | CC(=O)N[C@H]1CSSC(C)(C)[C@@H](C(N)=O)NC(=O)[C@H](CC(=O)O)NC(=O)[C@H](C)NC(=O)[C@H](CCCN=C(N)N)NC1=O (Ac-CRAD[Pen]-NH2; disulfide 1-5)
7 | > 200 | – | CC(=O)N[C@H]1CSSC(C)(C)[C@@H](C(N)=O)NC(=O)[C@H](CC(N)=O)NC(=O)CNC(=O)[C@H](CCCN=C(N)N)N(C)C1=O (Ac-C[NMeR]GN[Pen]-NH2; disulfide 1-5)
8 | > 200 | – | CC(=O)N[C@@H](Cc1cnc[nH]1)C(=O)NCC(=O)N[C@@H](CC(=O)O)C(=O)N[C@@H](CO)C(N)=O (Ac-HGDS-NH2)
9 | > 200 | – | CC(=O)N[C@@H](CCCCN)C(=O)NCC(=O)N[C@@H](CC(=O)O)C(=O)N[C@@H](CO)C(N)=O (Ac-KGDS-NH2)
10 | > 200 | – | CCNC(=O)[C@H](CO)NC(=O)[C@H](CC(=O)O)NC(=O)CNC(=O)[C@H](CCCNC(=N)N)NC(C)=O (Ac-RGDS-NHEt)
11 | 113 | – | Ac-RRGDF-NH2

More lines, now with the values behind:

Row | Compound | IC50 [1] [µM] | Ki [2] [µM]
12 | CC(=O)N[C@@H](CCCNC(=N)N)C(=O)NCC(=O)N[C@H](CC(=O)N[C@@H](CO)C(N)=O)C(=O)O | > 200 | –
13 | CC(=O)N[C@H](CCCCNC(=N)N)C(=O)NCC(=O)N[C@@H](CC(=O)O)C(=O)N[C@@H](CO)C(N)=O | 68.2 | –
14 | CC(=O)N[C@@H](CCCNC(=N)N)C(=O)NCC(=O)N[C@@H](CCC(=O)O)C(=O)N[C@@H](CO)C(N)=O | > 200 | –
15 | CC(=O)N[C@@H](CCCNC(=N)N)C(=O)NCC(=O)N[C@@H](CC(=O)O)C(N)=O | 138 | –
16 | CC(=O)N[C@H]1CSSC[C@@H](C(N)=O)NC(=O)[C@H](CC(=O)O)NC(=O)CNC(=O)[C@H](CCCN=C(N)N)NC(=O)CNC1=O | 52 | –
17 | CC(=O)N[C@@H](CCCNC(=N)N)C(=O)NCC(=O)N[C@@H](CC(=O)O)C(=O)NCCc1ccccc1 | 75.9 | –
18 | CC(=O)N[C@H]1CSSC(C)(C)[C@@H](C(N)=O)NC(=O)[C@H](CC(=O)O)NC(=O)CNC(=O)[C@H](CCCCN)NC1=O (Ac-CKGD[Pen]-NH2; disulfide 1-5) | 55.3 | –
19 | CC(=O)N[C@H]1CSSC[C@@H](C(N)=O)NC(=O)[C@H](CO)NC(=O)[C@H](CC(=O)O)NC(=O)CNC(=O)[C@H](CCCN=C(N)N)NC1=O (Ac-CRGDSC-NH2; disulfide 1-6) | 32.7 | –
20 | CC(=O)N[C@H]1CSSC(C)(C)[C@@H](C(N)=O)NC(=O)[C@H](CC(=O)O)NC(=O)CNC(=O)[C@H](CCCN=C(N)N)N(C)C1=O (Ac-C[NMeR]GD[Pen]-NH2; disulfide 1-5) | 0.355 | 0.062
21 | CC(=O)N[C@H]1CSSC(C)(C)[C@@H](C(N)=O)NC(=O)[C@H](CC(=O)O)NC(=O)CNC(=O)[C@H](CCCCN=C(N)N)NC1=O (Ac-C[hArg]GD[Pen]-NH2; disulfide 1-5) | 3.85 | –
22 | CC(=O)N[C@@H](CCCCN)C(=O)N[C@H]1CSSC(C)(C)[C@@H](C(=O)O)NC(=O)[C@H](CC(=O)O)NC(=O)CNC(=O)[C@H](C)NC1=O (Ac-KCAGD[Pen]-OH; disulfide 2-6) | > 200 | –
23 | CC(=O)N[C@@H](CCCCN)C(=O)NCC(=O)N[C@@H](CCC(=O)O)C(=O)N[C@@H](CO)C(N)=O (Ac-KGES-NH2) | > 200 | –
24 | CC(=O)N[C@@H](CCCNC(=N)N)C(=O)N[C@@H](C)C(=O)N[C@@H](CC(=O)O)C(=O)N[C@@H](CO)C(N)=O (Ac-RADS-NH2) | > 200 | –
25 | CC(=O)N[C@@H](CCCNC(=N)N)C(=O)NCC(=O)N[C@@H](CC(=O)O)C(=O)N[C@H](C(N)=O)C(C)C (Ac-RGDV-NH2) | 55.5 | –
26 | CC(=O)N[C@@H](CCCNC(=N)N)C(=O)NCC(=O)N[C@@H](CC(=O)O)C(=O)N[C@@H](Cc1ccc(O)cc1)C(N)=O (Ac-RGDY-NH2) | 102 | –
27 | CC(=O)N[C@@H](CCCNC(=N)N)C(=O)NCC(=O)N[C@@H](CC(N)=O)C(=O)N[C@@H](CO)C(N)=O (Ac-RGNS-NH2) | > 200 | –
28 | CC(=O)N[C@@H](CCCNC(=N)N)C(=O)N1CCC[C@H]1C(=O)N[C@@H](CC(=O)O)C(=O)N[C@@H](CO)C(N)=O (Ac-RPDS-NH2) | > 200 | –
29 | CC(=O)N[C@@H](CCCNC(=N)N)C(=O)N(C)CC(=O)N[C@@H](CC(=O)O)C(=O)N[C@@H](CO)C(N)=O (Ac-R[Sar]DS-NH2) | > 200 | –
30 | CC(=O)N[C@@H](CCCNC(N)=O)C(=O)NCC(=O)N[C@@H](CC(=O)O)C(=O)N[C@@H](CO)C(N)=O (Ac-[Cit]GDS-NH2) | > 200 | –
31 | CC(=O)N[C@@H](Cc1c[nH]cn1)C(=O)N[C@@H](Cc1c[nH]cn1)C(=O)N[C@@H](CC(C)C)C(=O)NCC(=O)NCC(=O)N[C@@H](C)C(=O)N[C@@H](CCCCN)C(=O)N[C@H]1CSSC(C)(C)[C@@H](C(N)=O)NC(=O)[C@H](CC(=O)O)NC(=O)CNC(=O)[C@H](CCCN=C(N)N)NC1=O [1N-[1-formyl-(1S)-ethylcarbamoylmethylcarbamoylmethyl]-2-[2-(1H-5-imidazolyl)-1-[2-(1H-5-imidazolyl)-1-methylcarboxamido-(1S)-ethylcarboxamido]-(1S)-ethylcarboxamido]-4-methyl-(2S)-pentanamide [4-Carbamoyl-16-(2,6-diamino-hexanoylamino)-13-(3-guanidino-propyl)-3,3-dimethyl-6,9,12,15-tetraoxo-1,2-dithia-5,8,11,14-tetraaza-cycloheptadec-7-yl]-acetic acid] | 9.6 | –
32 | Ac-HHLGGAKQAGDV-OH [1N-[1-[5-amino-1-formyl-(1S)-pentylcarbamoyl]-(1S)-ethylcarbamoylmethylcarbamoylmethyl]-2-[2-(1H-5-imidazolyl)-1-[2-(1H-5-imidazolyl)-1-methylcarboxamido-(1S)-ethylcarboxamido]-(1S)-ethylcarboxamido]-4-methyl-(2S)-pentanamide 2-[1-[1-[1-amino-3-carbamoyl-(1S)-propylcarboxamido]-(1S)-ethylcarboxamidomethylcarboxamido]-2-carboxy-(1S)-ethylcarboxamido]-3-methyl-(2S)-butanoic acid] | > 200 | –
